Usually IC50 stands for the concentration that gives 50% inhibition. The low end stands for higher potency, the high end for lower potency.

Data on 11 compounds can be found in ChEMBL document CHEMBL5465560, “Selectivity Literature for EUbOPEN Chemogenomic Library” (2024).

Test [1] deals with T1, Mitogen-activated protein kinase 12 (Homo sapiens) (UniProt P53778).
T1 sequence (whole entry): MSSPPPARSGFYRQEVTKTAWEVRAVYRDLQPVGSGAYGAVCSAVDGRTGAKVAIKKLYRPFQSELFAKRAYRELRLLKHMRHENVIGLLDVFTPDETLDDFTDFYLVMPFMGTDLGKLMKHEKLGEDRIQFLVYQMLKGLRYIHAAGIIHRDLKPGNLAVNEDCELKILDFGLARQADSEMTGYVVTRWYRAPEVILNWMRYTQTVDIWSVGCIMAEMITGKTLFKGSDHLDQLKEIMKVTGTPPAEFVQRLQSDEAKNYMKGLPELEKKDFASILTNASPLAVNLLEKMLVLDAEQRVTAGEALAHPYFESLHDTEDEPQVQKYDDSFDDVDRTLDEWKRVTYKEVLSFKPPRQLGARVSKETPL
The experiment in a line: Selectivity interaction (Kinase panel (Z-LYTE Assay)) EUB0001632a MAPK12. The note with it: at 10 µM.

For test [2], the target named is T2, Discoidin domain-containing receptor 2 (Homo sapiens) (UniProt Q16832).
T2 sequence (whole entry): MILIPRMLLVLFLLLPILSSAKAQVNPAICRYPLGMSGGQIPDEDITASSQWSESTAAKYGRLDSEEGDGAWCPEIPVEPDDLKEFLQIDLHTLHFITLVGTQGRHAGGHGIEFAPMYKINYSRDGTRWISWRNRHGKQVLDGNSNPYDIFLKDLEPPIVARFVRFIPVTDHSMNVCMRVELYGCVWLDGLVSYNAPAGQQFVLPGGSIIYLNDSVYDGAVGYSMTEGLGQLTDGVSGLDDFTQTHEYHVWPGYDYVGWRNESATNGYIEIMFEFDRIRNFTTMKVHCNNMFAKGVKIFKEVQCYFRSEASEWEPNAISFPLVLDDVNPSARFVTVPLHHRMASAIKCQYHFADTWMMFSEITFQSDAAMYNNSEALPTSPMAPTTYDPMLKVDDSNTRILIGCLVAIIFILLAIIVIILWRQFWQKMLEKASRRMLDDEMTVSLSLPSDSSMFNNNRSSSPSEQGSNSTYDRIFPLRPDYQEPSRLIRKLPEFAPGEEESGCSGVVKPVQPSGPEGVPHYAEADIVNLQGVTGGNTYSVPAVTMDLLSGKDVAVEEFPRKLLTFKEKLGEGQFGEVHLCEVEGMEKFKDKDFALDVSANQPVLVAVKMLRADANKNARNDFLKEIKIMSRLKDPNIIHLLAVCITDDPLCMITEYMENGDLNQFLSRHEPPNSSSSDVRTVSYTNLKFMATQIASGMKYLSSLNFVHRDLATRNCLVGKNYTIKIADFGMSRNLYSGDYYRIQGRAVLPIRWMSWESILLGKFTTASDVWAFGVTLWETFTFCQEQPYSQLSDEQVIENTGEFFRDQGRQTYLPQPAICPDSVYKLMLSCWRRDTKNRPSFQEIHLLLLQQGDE
Briefly: Selectivity interaction (LanthaScreen Eu Kinase Binding Assay) EUB0001632a DDR2. Conditions: at 10 µM.

Test [3] has as its target ALK tyrosine kinase receptor (Homo sapiens, UniProt Q9UM73). Briefly: Selectivity interaction (Kinase panel (Z-LYTE Assay)) EUB0001632a ALK. Conditions: at 10 µM.
Test [4] concerns the target Tyrosine-protein kinase Fgr (Homo sapiens) (UniProt P09769). The experiment in a line: Selectivity interaction (KinomeScan (DiscoverX)) EUB0000595a FGR. Conditions: at 10 µM.
The target in test [5] is T3, Muscle, skeletal receptor tyrosine-protein kinase (Homo sapiens) (UniProt O15146).
T3 sequence (whole entry): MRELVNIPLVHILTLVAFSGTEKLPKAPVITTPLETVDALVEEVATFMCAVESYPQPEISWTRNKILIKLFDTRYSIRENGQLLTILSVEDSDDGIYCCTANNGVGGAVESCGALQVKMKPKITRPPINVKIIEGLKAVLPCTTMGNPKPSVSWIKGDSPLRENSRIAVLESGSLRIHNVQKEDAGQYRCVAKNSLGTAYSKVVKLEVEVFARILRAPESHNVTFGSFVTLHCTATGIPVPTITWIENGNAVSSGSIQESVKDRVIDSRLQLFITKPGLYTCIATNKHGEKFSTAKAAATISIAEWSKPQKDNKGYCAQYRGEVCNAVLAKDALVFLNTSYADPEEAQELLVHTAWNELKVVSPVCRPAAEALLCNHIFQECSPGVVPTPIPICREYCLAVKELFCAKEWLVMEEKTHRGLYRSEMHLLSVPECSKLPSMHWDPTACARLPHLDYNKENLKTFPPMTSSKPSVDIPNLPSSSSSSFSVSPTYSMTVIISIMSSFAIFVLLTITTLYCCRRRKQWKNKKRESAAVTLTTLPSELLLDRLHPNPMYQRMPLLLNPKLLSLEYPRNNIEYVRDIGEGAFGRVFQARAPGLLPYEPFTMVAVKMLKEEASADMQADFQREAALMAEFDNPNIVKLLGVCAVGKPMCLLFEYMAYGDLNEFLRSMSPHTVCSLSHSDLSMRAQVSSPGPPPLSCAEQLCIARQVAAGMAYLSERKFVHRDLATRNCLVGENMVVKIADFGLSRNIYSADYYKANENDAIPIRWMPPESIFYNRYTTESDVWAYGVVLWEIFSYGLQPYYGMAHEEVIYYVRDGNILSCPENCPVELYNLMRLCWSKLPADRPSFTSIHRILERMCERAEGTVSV
Briefly: Selectivity interaction (Kinase panel (Invitrogen)) EUB0000639a MUSK. Conditions: at 200 nM.

Test [6] has as its target Serine/threonine-protein kinase PAK 6 (Homo sapiens) (UniProt Q9NQU5). The experiment in a line: Selectivity interaction (KinomeScan (DiscoverX)) EUB0000045b PAK6.
Test [7] deals with Homeodomain-interacting protein kinase 2 (Homo sapiens, UniProt Q9H2X6). The experiment in a line: Selectivity interaction (ProQinase) EUB0000171b HIPK2.
The target in test [8] is Mitogen-activated protein kinase 3 (Homo sapiens, UniProt P27361). The experiment in a line: Selectivity interaction (Ambit KINOMEscan and KiNATiv profiling in Jurkat cells) EUB0000090b MAPK3. The test is classed as cell-based. The note with it: at 1 µM.
The target of test [9] is Mast/stem cell growth factor receptor Kit (Homo sapiens, UniProt P10721).
For test [10], the target named is Tyrosine-protein kinase SYK (Homo sapiens, UniProt P43405). Briefly: Selectivity interaction (KinomeScan (DiscoverX)) EUB0000092b SYK. Conditions: at 10 µM.
Test [11] has as its target Bromodomain-containing protein 3 (Homo sapiens) (UniProt Q15059). The experiment in a line: Selectivity interaction (Human bromodomain panel (DSF assay)) EUB0000233b BRD3.
Test [12] deals with Ephrin type-A receptor 5 (Homo sapiens) (UniProt P54756). The experiment in a line: Selectivity interaction (Kinase panel (DSF assay)) EUB0001558a EPHA5. A general note: DSF heats the sample and reads unfolding from a dye or from intrinsic fluorescence.
For test [13], the target named is Serine/threonine-protein kinase PLK1 (Homo sapiens, UniProt P53350). Briefly: Selectivity interaction (Kinase panel (KiNativ target engagement assay in Jurkat cells)) EUB0001635a PLK1. It is filed as cell-based. The note with it: Selectivity number of off-targets 0.0, Selectivity number of targets 233.0, Source Knowledge https://www.sciencedirect.com/science/article/pii/S2451945619300674?via%3Dihub, at 1 µM.

Where only a bound is given, the exact number is not on record here.

Sequence of Homeodomain-interacting protein kinase 2 (Q9H2X6 whole entry, looked up): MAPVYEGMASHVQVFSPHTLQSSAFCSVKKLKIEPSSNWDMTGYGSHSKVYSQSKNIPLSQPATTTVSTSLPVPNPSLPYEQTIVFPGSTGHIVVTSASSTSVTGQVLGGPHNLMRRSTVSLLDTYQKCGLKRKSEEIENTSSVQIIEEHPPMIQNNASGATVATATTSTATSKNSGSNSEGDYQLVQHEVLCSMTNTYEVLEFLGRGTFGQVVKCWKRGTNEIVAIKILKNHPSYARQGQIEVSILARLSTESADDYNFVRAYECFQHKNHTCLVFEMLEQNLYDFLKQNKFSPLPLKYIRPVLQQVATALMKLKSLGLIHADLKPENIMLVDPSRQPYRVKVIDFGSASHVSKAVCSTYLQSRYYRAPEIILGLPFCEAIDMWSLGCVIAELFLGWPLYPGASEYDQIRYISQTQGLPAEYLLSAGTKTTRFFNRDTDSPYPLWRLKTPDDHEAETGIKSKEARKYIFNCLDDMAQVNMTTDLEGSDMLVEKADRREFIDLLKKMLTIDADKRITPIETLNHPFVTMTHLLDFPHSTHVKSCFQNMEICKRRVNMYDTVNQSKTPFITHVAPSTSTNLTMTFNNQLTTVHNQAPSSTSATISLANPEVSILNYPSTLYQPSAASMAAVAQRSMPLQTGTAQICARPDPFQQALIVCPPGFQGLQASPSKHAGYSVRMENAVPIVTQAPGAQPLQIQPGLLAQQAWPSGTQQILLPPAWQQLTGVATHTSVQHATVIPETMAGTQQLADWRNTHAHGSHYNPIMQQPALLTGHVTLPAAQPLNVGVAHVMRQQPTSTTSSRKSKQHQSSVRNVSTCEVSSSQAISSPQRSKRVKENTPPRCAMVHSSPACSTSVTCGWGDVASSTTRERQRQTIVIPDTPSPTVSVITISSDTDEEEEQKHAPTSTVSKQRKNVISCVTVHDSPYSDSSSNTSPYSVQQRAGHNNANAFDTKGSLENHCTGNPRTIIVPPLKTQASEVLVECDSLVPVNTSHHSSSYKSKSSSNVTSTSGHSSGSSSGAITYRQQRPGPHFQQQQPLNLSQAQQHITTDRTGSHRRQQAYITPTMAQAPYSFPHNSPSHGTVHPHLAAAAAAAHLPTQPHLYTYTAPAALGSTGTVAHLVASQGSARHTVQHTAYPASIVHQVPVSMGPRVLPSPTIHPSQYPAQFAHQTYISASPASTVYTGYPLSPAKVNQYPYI
Sequence of Serine/threonine-protein kinase PAK 6 (Homo sapiens) (Q9NQU5 whole entry, looked up): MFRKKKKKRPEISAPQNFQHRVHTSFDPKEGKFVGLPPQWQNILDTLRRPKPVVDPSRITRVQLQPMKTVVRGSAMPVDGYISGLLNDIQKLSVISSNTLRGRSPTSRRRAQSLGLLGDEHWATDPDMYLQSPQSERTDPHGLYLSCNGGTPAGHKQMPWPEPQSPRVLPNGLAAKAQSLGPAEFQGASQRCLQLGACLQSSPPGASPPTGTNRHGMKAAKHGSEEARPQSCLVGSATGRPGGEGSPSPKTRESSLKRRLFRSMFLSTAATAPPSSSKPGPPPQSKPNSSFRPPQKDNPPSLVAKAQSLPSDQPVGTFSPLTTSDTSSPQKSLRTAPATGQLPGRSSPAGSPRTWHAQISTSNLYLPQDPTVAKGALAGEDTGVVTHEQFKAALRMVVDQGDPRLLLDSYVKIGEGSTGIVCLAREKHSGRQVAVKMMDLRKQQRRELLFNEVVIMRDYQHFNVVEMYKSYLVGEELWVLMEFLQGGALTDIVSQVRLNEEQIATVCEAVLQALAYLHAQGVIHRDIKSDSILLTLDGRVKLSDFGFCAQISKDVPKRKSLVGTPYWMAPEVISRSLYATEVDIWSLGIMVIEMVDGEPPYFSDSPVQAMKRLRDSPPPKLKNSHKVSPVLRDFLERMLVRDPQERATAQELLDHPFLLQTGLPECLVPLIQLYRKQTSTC
Sequence of Ephrin type-A receptor 5 (Homo sapiens) (P54756 whole entry): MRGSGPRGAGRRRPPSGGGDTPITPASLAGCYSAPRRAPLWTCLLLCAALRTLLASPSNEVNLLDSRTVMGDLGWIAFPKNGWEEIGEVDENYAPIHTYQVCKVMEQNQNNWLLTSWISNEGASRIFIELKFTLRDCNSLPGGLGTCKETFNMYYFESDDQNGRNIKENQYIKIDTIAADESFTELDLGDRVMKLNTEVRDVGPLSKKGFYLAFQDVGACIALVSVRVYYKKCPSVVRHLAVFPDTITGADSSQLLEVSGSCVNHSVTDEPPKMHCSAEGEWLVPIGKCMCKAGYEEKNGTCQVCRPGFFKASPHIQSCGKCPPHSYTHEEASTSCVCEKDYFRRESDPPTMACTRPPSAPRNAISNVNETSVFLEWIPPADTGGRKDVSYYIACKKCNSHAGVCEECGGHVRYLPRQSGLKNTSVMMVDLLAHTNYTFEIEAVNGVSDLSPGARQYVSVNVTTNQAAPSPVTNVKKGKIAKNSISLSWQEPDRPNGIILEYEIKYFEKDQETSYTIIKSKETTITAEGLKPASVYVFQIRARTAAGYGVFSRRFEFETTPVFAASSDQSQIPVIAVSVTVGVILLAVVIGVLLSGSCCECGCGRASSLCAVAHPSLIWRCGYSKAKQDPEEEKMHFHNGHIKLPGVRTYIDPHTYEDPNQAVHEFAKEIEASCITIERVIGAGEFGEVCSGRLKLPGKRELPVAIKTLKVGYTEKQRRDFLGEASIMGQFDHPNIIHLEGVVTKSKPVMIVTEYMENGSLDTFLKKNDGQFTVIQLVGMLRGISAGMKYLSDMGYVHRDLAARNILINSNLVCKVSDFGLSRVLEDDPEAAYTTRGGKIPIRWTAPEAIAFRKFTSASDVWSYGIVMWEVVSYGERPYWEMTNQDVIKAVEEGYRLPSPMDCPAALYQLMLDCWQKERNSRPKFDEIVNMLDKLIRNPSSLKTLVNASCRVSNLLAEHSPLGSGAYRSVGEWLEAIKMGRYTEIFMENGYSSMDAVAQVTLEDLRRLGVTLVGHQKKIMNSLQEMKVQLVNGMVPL
Sequence of Tyrosine-protein kinase Fgr (Homo sapiens) (P09769 2-529 limits assumed): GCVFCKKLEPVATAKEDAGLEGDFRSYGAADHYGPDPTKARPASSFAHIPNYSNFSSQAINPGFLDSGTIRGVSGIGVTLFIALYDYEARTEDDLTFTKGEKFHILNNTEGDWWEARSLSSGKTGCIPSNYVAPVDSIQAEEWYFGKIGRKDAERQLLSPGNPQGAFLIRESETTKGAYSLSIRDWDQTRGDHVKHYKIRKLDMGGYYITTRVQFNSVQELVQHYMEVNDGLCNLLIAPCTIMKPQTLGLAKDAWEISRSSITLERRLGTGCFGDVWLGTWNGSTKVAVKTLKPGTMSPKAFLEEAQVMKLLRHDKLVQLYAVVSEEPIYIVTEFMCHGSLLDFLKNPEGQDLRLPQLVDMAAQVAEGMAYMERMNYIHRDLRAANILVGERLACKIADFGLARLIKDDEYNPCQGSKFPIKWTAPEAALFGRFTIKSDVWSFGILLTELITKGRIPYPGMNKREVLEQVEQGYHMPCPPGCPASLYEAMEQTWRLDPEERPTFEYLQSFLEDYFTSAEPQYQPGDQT
Sequence of ALK tyrosine kinase receptor (Q9UM73 19-1620 limits assumed): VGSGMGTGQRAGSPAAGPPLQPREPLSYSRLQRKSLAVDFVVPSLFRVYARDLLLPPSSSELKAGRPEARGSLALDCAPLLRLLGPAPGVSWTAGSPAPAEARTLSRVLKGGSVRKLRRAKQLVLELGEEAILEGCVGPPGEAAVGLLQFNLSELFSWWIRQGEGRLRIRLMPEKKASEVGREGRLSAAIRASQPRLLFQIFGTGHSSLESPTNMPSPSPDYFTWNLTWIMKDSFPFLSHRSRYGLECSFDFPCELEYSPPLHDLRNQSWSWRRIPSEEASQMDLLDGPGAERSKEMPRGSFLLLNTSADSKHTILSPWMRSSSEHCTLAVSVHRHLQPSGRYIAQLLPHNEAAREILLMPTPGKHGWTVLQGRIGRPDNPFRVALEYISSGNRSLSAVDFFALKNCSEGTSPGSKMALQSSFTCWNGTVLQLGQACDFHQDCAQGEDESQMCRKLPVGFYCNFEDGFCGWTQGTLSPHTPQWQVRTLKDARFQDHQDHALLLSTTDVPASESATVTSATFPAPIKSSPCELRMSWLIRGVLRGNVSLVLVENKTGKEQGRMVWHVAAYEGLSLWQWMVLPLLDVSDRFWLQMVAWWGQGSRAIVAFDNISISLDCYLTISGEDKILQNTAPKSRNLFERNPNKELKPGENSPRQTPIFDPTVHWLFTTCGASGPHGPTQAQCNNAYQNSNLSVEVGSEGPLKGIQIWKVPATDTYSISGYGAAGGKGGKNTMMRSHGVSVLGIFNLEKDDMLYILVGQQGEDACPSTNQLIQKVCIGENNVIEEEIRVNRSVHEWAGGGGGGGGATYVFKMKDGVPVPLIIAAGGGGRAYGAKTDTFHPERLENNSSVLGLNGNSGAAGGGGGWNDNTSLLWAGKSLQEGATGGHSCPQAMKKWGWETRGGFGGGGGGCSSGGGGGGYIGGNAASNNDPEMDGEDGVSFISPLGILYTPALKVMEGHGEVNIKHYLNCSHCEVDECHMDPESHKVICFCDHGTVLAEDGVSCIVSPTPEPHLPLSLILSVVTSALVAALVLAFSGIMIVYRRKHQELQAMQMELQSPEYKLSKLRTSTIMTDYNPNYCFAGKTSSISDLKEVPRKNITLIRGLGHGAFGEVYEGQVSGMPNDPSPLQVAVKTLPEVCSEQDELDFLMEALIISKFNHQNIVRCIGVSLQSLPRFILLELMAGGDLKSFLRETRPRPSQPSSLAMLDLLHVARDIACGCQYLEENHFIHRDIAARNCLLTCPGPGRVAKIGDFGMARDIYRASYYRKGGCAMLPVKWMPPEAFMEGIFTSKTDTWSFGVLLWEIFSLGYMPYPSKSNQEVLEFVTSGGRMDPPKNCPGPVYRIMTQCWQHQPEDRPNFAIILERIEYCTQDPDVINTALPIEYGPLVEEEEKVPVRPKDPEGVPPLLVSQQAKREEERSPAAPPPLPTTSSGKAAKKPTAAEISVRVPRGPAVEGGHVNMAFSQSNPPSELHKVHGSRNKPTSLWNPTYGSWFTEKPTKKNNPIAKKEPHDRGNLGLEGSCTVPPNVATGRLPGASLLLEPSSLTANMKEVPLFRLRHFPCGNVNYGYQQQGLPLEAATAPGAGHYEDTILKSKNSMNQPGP

On to `Cn1cc(-n2cnc3c(NCc4nc5cc(Cl)c(Cl)cc5[nH]4)nc(N4CCOCC4)nc32)cn1`, for which the % of control is 1.47% in test [1] and -0.105% in test [3]. Besides, the % of inhibition in [2] is -2.81%. Take `COCC(=O)NC/C=C/c1ccc2ncnc(Nc3ccc(Oc4ccc(C)nc4)c(C)c3)c2c1` [CP-724714]: the % of control in [4] worked out at 89%. For the compound `CC[C@@H]1[C@H](F)C(=O)N[C@@H]1COc1nccc2cc(C(N)=O)c(OC)cc12` [ZIMLOVISERTIB], the % of inhibition in test [5] was -2.77%. Regarding `C=CC(=O)Nc1cc(-n2c(=O)ccc3cnc4ccc(-c5ccc(NS(C)(=O)=O)cc5)cc4c32)ccc1C`, the % of control in test [6] (at 1 µM) turned out to be 100%; in test [6] (at 10 µM), 73%. With `C=CC(=O)Nc1cccc(C(=O)Nc2ccc(Nc3cc(-c4[nH]c(SC)nc4C)ccn3)cc2)c1`, the % of control is 100% in [7] (at 1 µM) and 87% in test [7] (at 5 µM). As to `CN(C)C/C=C/C(=O)Nc1ccc(C(=O)N2CCCC(Nc3ncc(Cl)c(-c4c[nH]c5ccccc45)n3)C2)cc1` (stereo not given), in test [8], the % of control was 84%. Regarding `CCc1cccc(CC)c1NC(=O)c1nn(C)c2c1CCc1cnc(Nc3ccc(C(=O)NC4CCN(C)CC4)cc3OC(F)(F)F)nc1-2`, the 50% inhibitory concentration (IC50) in test [9] was > 10 µM. As to `CCC(=O)N1CCN(c2ccc(-n3c(=O)ccc4cnc5ccc(-c6cnc7ccccc7c6)cc5c43)cc2C(F)(F)F)CC1`, the % of control in [10] came to 78%. In the case of `CN(C)CCCOc1ccc(-c2cc(NCCCn3cccn3)nc(S(C)(=O)=O)n2)cc1`, the dTM in [11] was < 2 K.

`CC(C)(O)[C@H](F)CN1Cc2cc(NC(=O)c3cnn4cccnc34)c(N3CCOCC3)cc2C1=O`: in test [12], the dTM is 2.4 K. In [13], `C=CC(=O)Nc1ccc(C(=O)Nc2[nH]nc3c2CN(C(=O)N[C@H](CN(C)C)c2ccccc2)C3(C)C)cc1` yielded a % of engagement of 5%.
